How the values were obtained:
[1] = system: B16F10 melanoma cells; assay: In vivo tumor growth of B16F10 xenografts in nude mice; details: B16F10 s.c. xenograft, daily intraperitoneal injection for 15 days, TAXOL 0.5 μM, C-45 100 μg, FIG. 4
Procedure: In addition, tumor growth in vivo of xenografts of B16F10 melanoma cells in nude mice was determined. Briefly, subconfluent cultures of B16F10 cells were harvested, washed, and resuspended in sterile PBS. Female nude mice were injected subcutaneously with 1×10^6 cells per mouse and tumors were allowed to grow for 3 days. After 3 days, mice were either untreated or treated daily for 15 days by intraperitoneal injection of TAXOL® (paclitaxel) (0.5 μM), C-45 (100 μg), or a combination of TAXOL® (paclitaxel) and C-45. Tumor growth was determined weekly by caliper measurements. After 15 days, the mice were sacrificed and tumor volume was determined by standard methods using the formula […], where V=volume, L=length, and W=width.

[2] = system: B16F10 melanoma cells; assay: Chick embryo tumor growth model; assay type: in vivo, chick embryos; details: B16F10 cells cultured with 50 μg/ml C-45 at least 7 days before implantation; for growth of B16F10 tumors in chick embryos, with or without TAXOL: TAXOL 0.01 μM, FIG. 5B
Procedure: The chick embryo tumor growth model was used to determine whether C-45 enhances the ability of TAXOL® (paclitaxel) or ionizing radiation to inhibit tumor growth. Briefly, B16F10 melanoma cells were cultured in growth medium in the presence or absence of 50 μg/ml C-45 for at least 7 days. Following harvesting and washing, about 2×10^5 tumor cells were implanted onto the chorioallontoic membranes of 10 day-old chick embryos and incubated for at least 24 hours. Following incubation, the embryos were treated with either a single fractionated dose of radiation (5.0 Gy) or TAXOL® (paclitaxel) (0.01 μM) and incubated for an additional 7 days. The embryos were sacrificed and tumors were resected and weighed (5-10 embryos per condition).

[3] = system: 4T1 breast carcinoma cells; assay: Tumor cell proliferation, WST-1 tetrazolium salt cleavage; assay type: cell-based; details: 50 μg/ml test compound for 3 days, with or without 0.01 μM TAXOL for additional 48 hours; compared to untreated control; FIG. 3C
Procedure: (§1) Tumor cell proliferation was assessed by monitoring mitochondrial dehydrogenase activity as detected by tetrazolium salt cleavage using a commercially available kit (WST-1; Roche, Indianapolis, Ind.). Briefly, B16F10 melanoma cells, Lewis Lung carcinoma cells, and 4T1 breast carcinoma cells (1×10^6) were resuspended in PABA-free growth medium supplemented with 2.0% fetal bovine serum and 50 μg/ml of test compound (as shown in FIG. 1) Following incubation for 3 days, the cells were either treated or not treated with 0.01 μM TAXOL® (paclitaxel) and incubated for an additional 48 hours. Proliferation was measured; data points represent the mean optical density at 490 nm±SD from triplicate wells.

[4] = system: B16F10 melanoma cells; assay: as above; assay type: cell-based; details: 50 μg/ml test compound for 3 days, with or without 0.01 μM TAXOL for additional 48 hours; compared to untreated control; FIG. 3A
Procedure: as §1

[5] = system: Lewis Lung carcinoma cells; assay: as above; assay type: cell-based; details: 50 μg/ml test compound for 3 days, with or without 0.01 μM TAXOL for additional 48 hours; compared to untreated control; FIG. 3B
Procedure: as §1

[6] = system: tyrosinase (from mushrooms); assay: Purified tyrosinase activity, formation of DOPAchrome from L-DOPA; assay type: biochemical; details: at 8.0 mM, up to 10 minutes; L-DOPA 8.0 mM, 800 U/ml tyrosinase; FIG. 2
Procedure: Activity of purified tyrosinase was measured by monitoring the formation of DOPAchrome. Briefly, a fixed concentration of L-DOPA (8.0 mM) was incubated with 800 U/ml tyrosinase (from mushrooms-Sigma, St. Louis, Mo.) in the absence or presence of increasing concentrations of PABA, compound 44 (C-44) and compound 45 (C-45) (see FIG. 1 for structures) for indicated time points (see FIG. 2 for concentrations and time points). At each time point, 100 μl of the reaction mixture was measured. Data points represent the mean optical density at 475 nm±SD from triplicate wells.

[7] = system: CDC25A; assay: CDC25A protein expression in G361 melanoma cells treated with PABA; assay type: cell-based; details: G361 human melanoma cells treated with PABA; data not shown
Text: (§2) To determine whether tumor cells abnormally express and signal through the PXR/SXR receptor compared to their non-transformed counterparts, and thus, candidates for treatment with PXR/SXR agonists, immortalized, non-transformed cells and sub-confluent transformed, tumorigenic cells will be cultured in the presence or absence of various concentrations of a known PXR/SXR activator, e.g., benzoic acid derivatives, and a negative control, e.g., streptomycin, for a pre-determined time e.g., 5 days. Cell lyses will be achieved as described above. Following lyses, about 15 μg/lane of protein will be loaded and separated by 10% SDS-PAGE, followed by transfer to nitrocellulose membranes. Membranes will then incubated in the presence of e.g., monoclonal antibody 39048, specific for the PXR/SXR nuclear receptor, followed by washing and labeling with a peroxidase-labeled secondary antibody.
(§3) Similarly, to evaluate expression of cell cycle proteins that may be regulated by PXR/SXR activation in response to drug treatment, membranes as prepared above will be incubated with commercially available monoclonal antibodies such as PC410 (Chemicon, Temecula, Calif.), directed against β-integrin, as a positive control, monoclonal antibody 3303, specific for BRCA-2 (QED Biosciences, San Diego, Calif.), and with monoclonal antibody AB-3, directed against CDC25A (NeoMakers Inc). […]

[8] = system: BRCA-2; assay: BRCA-2 protein expression in G361 melanoma cells treated with PABA; assay type: cell-based; details: G361 human melanoma cells treated with PABA; data not shown
Text: as §2, §3

[9] = biological target: T1, PXR/SXR receptor (Homo sapiens, UniProt O75469); details: Moore et al., Mol. Endocrinol. 2002; 16: 977-986; cited from earlier work
T1 sequence (O75469 1-434): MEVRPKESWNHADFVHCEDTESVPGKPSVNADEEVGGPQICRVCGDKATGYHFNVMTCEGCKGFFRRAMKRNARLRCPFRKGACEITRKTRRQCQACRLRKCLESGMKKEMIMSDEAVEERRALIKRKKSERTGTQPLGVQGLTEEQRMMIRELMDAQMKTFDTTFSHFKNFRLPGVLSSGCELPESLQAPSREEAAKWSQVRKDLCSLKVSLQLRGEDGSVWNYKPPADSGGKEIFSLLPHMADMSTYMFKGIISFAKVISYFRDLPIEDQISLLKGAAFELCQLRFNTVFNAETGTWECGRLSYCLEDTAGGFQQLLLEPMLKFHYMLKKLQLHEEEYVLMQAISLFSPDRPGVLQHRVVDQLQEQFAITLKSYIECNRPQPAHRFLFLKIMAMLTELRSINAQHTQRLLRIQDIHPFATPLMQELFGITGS

| Compound | in vivo tumor growth (tumor volume) compared to untreated controls [1] | growth of B16F10 tumors in chick embryos, with or without TAXOL [2] | tumor weight / tumor growth in chick embryos, with or without radiation ([2]; single dose of radiation 5.0 Gy, FIG. 5A) | in vitro proliferation of 4T1 breast carcinoma cells (optical density at 490 nm) [3] | in vitro proliferation of B16F10 cells (optical density at 490 nm) [4] | in vitro proliferation of Lewis Lung carcinoma cells (optical density at 490 nm) [5] | inhibition of tyrosinase activity (DOPAchrome formation, optical density at 475 nm) [6] | expression of cell-cycle progression checkpoint protein CDC25A [7] | protein expression of DNA repair protein BRCA-2 [8] | binding and activation of the PXR/SXR receptor [9] |
| --- | --- | --- | --- | --- | --- | --- | --- | --- | --- | --- |
| C=CCNc1ccc(C(=O)O)cc1 [C-45] | neither TAXOL® (paclitaxel) nor C-45 inhibited in vivo tumor growth | inhibited the growth of the B16F10 tumors significantly | reduced tumor weight significantly | inhibited in vitro proliferation | inhibited in vitro proliferation | inhibited in vitro proliferation | inhibited tyrosinase activity | – | – | – |
| Nc1ccc(C(=O)O)cc1 [PABA, para-amino-benzoic acid] | – | – | – | – | – | – | inhibited tyrosinase activity | increase expression of cell-cycle progression checkpoint protein CDC25A | decreased protein expression of DNA repair protein BRCA-2 | bind and activate the PXR/SXR receptor |
| CC(=O)O[C@H]1C(=O)[C@@]2(C)[C@H]([C@H](OC(=O)c3ccccc3)[C@]3(O)C[C@H](OC(=O)[C@H](O)[C@@H](NC(=O)c4ccccc4)c4ccccc4)C(C)=C1C3(C)C)[C@]1(OC(C)=O)CO[C@@H]1C[C@@H]2O [TAXOL® (paclitaxel), paclitaxel] | neither TAXOL® (paclitaxel) nor C-45 inhibited in vivo tumor growth | inhibited the growth of the B16F10 tumors significantly | – | inhibited in vitro proliferation | inhibited in vitro proliferation | inhibited in vitro proliferation | – | – | – | – |

Reference: patent US9018259B2, “Treatment of cancer using benzoic acid derivatives” (New York University, priority 2004, dated 2015)
